Experimental data published in ChEMBL document CHEMBL1201862, “PubChem BioAssay data set” (2004).
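Exposure lasted 48 hours, with cells grown in 96-well plates and compounds tested at five concentrations. GI50 is the concentration that inhibits growth by half.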 Calls of active or inactive are those of the source. Rule as the data show it: active = GI50 up to about 1.1 µM and inactive = higher.

Experiments:
Experiment in all cases: growth of human tumour cells (NCI), 48 h
OVCAR-5 = system: OVCAR-5
UACC-257 = system: UACC-257
Hs-578T = system: Hs-578T
HCT-116 = system: HCT-116
SW-620 = system: SW-620
SF-539 = system: SF-539
SF-295 = system: SF-295
HCC 2998 = system: HCC 2998
SK-MEL-5 = system: SK-MEL-5
CAKI-1 = system: CAKI-1
MDA-MB-231 = system: MDA-MB-231
EKVX = system: EKVX
OVCAR-3 = system: OVCAR-3
TK-10 = system: TK-10
HL-60 = system: HL-60
CCRF-CEM = system: CCRF-CEM
KM12 = system: KM12
IGROV-1 = system: IGROV-1
ACHN = system: ACHN
SK-OV-3 = system: SK-OV-3

SMILES	GI50 (OVCAR-5)	GI50 (UACC-257)	GI50 (Hs-578T)	GI50 (HCT-116)	GI50 (SW-620)	GI50 (SF-539)	GI50 (SF-295)	GI50 (HCC 2998)	GI50 (SK-MEL-5)	GI50 (CAKI-1)	GI50 (MDA-MB-231)	GI50 (EKVX)	GI50 (OVCAR-3)	GI50 (TK-10)	GI50 (HL-60)	GI50 (CCRF-CEM)	GI50 (KM12)	GI50 (IGROV-1)	GI50 (ACHN)	GI50 (SK-OV-3)
CC(=O)N1C(CCc2ccccc2)CC(C)(C=O)C1Cc1ccc(O[Si](C(C)C)(C(C)C)C(C)C)cc1 (centres undefined)	14.7 µM (inactive)	5.11 µM (inactive)	3.28 µM (inactive)	2.55 µM (inactive)	3.21 µM (inactive)	2.43 µM (inactive)	5.11 µM (inactive)	1.31 µM (inactive)	3.4 µM (inactive)	3.05 µM (inactive)	4.79 µM (inactive)	4.75 µM (inactive)	4.8 µM (inactive)	3.68 µM (inactive)	1.76 µM (inactive)	1.87 µM (inactive)	3.02 µM (inactive)	4.9 µM (inactive)	6.89 µM (inactive)	13.4 µM (inactive)
CCCCCCCC(=O)OC[n+]1cccc(-c2c(COC(=O)NC(C)C)c(COC(=O)NC(C)C)c3n2CCC3)c1	> 100 µM (inactive)	> 100 µM (inactive)	> 100 µM (inactive)	50 µM (inactive)	> 50.5 µM (inactive)	33.7 µM (inactive)	> 84.1 µM (inactive)	> 100 µM (inactive)	> 100 µM (inactive)	18.9 µM (inactive)	> 100 µM (inactive)	> 100 µM (inactive)	> 100 µM (inactive)	> 100 µM (inactive)	24.3 µM (inactive)	21.2 µM (inactive)	> 100 µM (inactive)	> 51.2 µM (inactive)	34 µM (inactive)	> 100 µM (inactive)
Cc1c(C)c2c(c(N)c1C#N)C(=O)N(NC(=S)Nc1ccccc1)C2=O	> 100 µM (inactive)	> 100 µM (inactive)	42.1 µM (inactive)	52.6 µM (inactive)	57.5 µM (inactive)	49.8 µM (inactive)	60.8 µM (inactive)	> 100 µM (inactive)	90.4 µM (inactive)	18.2 µM (inactive)	> 100 µM (inactive)	> 100 µM (inactive)	> 100 µM (inactive)	> 100 µM (inactive)	86.9 µM (inactive)	62.5 µM (inactive)	91.4 µM (inactive)	56.5 µM (inactive)	50 µM (inactive)	> 100 µM (inactive)
O[C@]12C=C(c3nccc4c3[nH]c3ccccc34)[C@@H]3CCN(CCCC/C=C\CC1)C[C@@]31CC3/C=C\CCCCN3[C@H]12 (some centres undefined)	0.405 µM (active)	0.652 µM (active)	0.411 µM (active)	0.243 µM (active)	0.306 µM (active)	0.53 µM (active)	0.513 µM (active)	0.284 µM (active)	0.187 µM (active)	0.541 µM (active)	0.484 µM (active)	0.441 µM (active)	0.302 µM (active)	0.378 µM (active)	0.248 µM (active)	0.74 µM (active)	0.387 µM (active)	0.112 µM (active)	0.299 µM (active)	0.0869 µM (active)
CCOC(=O)C1(Cc2ccc3c(c2)CCC3)Cc2cc3c(cc2C1)CCC3	45.6 µM (inactive)	23.7 µM (inactive)	34.8 µM (inactive)	25.5 µM (inactive)	23.9 µM (inactive)	29.7 µM (inactive)	25.1 µM (inactive)	22.6 µM (inactive)	–	45.7 µM (inactive)	28.1 µM (inactive)	47.6 µM (inactive)	32.4 µM (inactive)	> 100 µM (inactive)	> 100 µM (inactive)	13.9 µM (inactive)	40.7 µM (inactive)	46.8 µM (inactive)	33.7 µM (inactive)	24.7 µM (inactive)
